This note sets out measurements from patent publication US8101761B2, “(E)-N-{3-[1-(8-fluoro-11H-10-OXA-1-AZA-dibenzo [A,D] cyclohepten-5ylidene)-propyl]-phenyl}-methanesulfonamide as glucocorticoid receptor modulator for the treatment of rheumatoid arthritis” (Eli Lilly and Company, priority 2008, dated 2012).

The structures appear in SMILES notation. Read-outs that look alike come from different tables or passages of the source. A value given as a limit tells only on which side of the number the result lay.

The test concerns carrageenan-induced paw edema in male Sprague-Dawley rats. The experiment in a line: Carrageenan-induced paw edema (CPE) model. The settings on record: rat, oral gavage 2 h before carrageenan, paws taken 3 h after, mean of 5 determinations. In kind it is in vivo. The source says:
Carrageenans are a group of polysaccharides which can induce an acute inflammatory response in animals. Cardinal signs of inflammation including edema, hyperalgesia and erythema are developed in the injection site immediately following injection. The CPE model is a recognized model of inflammation and can be used to evaluate the anti-inflammatory effects of glucocorticoid receptor ligands.
To evaluate the anti-inflammatory effects of Compound (I), the compound is formulated in a vehicle comprising 0.5% carboxymethyl cellulose and 0.25% Tween 80 then administered orally via gavage to male Sprague-Dawley rats (180-200 g). For comparison, prednisolone may be administered orally in the same vehicle. Two hours later, 1% carrageenan in 50 μl of 0.9% pyrogen free saline is injected into the subplantar regions of the right hind paw. Rats are euthanized by CO2 at 3 hours after the carrageenan injection. Paws are removed then weighed using a microbalance. Paws are then dissected by making several cuts on the paw surface and immediately immersing into liquid nitrogen until frozen. Frozen paws are then centrifuged to extract the exudates. Exudate levels of IL-1β, a cytokine generated during the inflammatory response is then measured by ELISA according to manufacturers instructions. Total paw protein is also measured using a protein assay kit and the absolute level of IL-1β is normalized to yield a concentration value of ng IL-1β/mg total protein.
A general note: In the carrageenan paw model, swelling and tenderness develop within hours.

Consider `C[C@]12C=CC(=O)C=C1CC[C@@H]1[C@@H]2[C@@H](O)C[C@@]2(C)[C@H]1CC[C@]2(O)C(=O)CO` [prednisolone, reference compound], for which the ED50 is approximately 6.6 mg/kg (read-out: ED50, inhibition of carrageenan induced paw weight gain) and less than 1 mg/kg (read-out: ED50, reduction of paw exudate levels of IL-1β).

One may read the ED50 as the dose at which the effect has come halfway, by size or by number of responders.
